Results taken from the supplement of paper PMC10307832.

Columns and labels:
Assay in all cases: relative viability (nuclei count vs DMSO), 5 days (fraction); higher = more cells survive
AZ505 + Navitoclax = compound: C1CCC(CC1)N(CCNCCC2=C3C(=C(C=C2)O)NC(=O)CO3)C(=O)CCNCCC4=CC(=C(C=C4)Cl)Cl [AZ505] + CC1(C)CCC(c2ccc(Cl)cc2)=C(CN2CCN(c3ccc(C(=O)NS(=O)(=O)c4ccc(N[C@H](CCN5CCOCC5)CSc5ccccc5)c(S(=O)(=O)C(F)(F)F)c4)cc3)CC2)C1 [Navitoclax] (partner 0.5 µM)
Method in brief: (§1)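 After 5 days of treatment, lung cancer cells in 1536-well plates were fixed and stained in a single step (final 0.05% Triton X-100, 1% formaldehyde, 1 ug/ml Hoechst) and their nuclei counted on 4× images. Treatment had been applied by pin tool the day after seeding as one drug alone or as a fixed anchor-drug dose with five library-drug doses (not always all listed) in √10 steps. Relative viability is the nuclei count of treated wells divided by that of vehicle wells, and values are medians of duplicate plates.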

Dactolisib + Phenformin = compound: Cn1c(=O)n(-c2ccc(C(C)(C)C#N)cc2)c2c3cc(-c4cnc5ccccc5c4)ccc3ncc21 [Dactolisib] + N=C(N)NC(=N)NCCc1ccccc1 [Phenformin] (partner 250 µM)
Method in brief: as §1

AZ505 = compound: C1CCC(CC1)N(CCNCCC2=C3C(=C(C=C2)O)NC(=O)CO3)C(=O)CCNCCC4=CC(=C(C=C4)Cl)Cl [AZ505]
Method in brief: (§2)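 After an overnight hold at 37 °C, lung cancer cell lines in 1536-well plates were pinned with five library-drug doses (not always all listed), each √10 from the next, on vehicle-anchored plates. The cells stayed 5 days without fresh medium, then a one-step fix, permeabilisation and Hoechst stain preceded 4× imaging and MetaXpress nuclear counts. A plate passed only with control CV under 25% and at least one doubling. Viability is the median, over plates, of treated-well nuclei relative to vehicle-well nuclei.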

Dactolisib = compound: Cn1c(=O)n(-c2ccc(C(C)(C)C#N)cc2)c2c3cc(-c4cnc5ccccc5c4)ccc3ncc21 [Dactolisib]
Method in brief: as §2

Cell Line | relative viability (AZ505 + Navitoclax; first compound 0.08 µM) | relative viability (AZ505 + Navitoclax; first compound 0.253 µM) | relative viability (AZ505 + Navitoclax; first compound 0.8 µM) | relative viability (AZ505 + Navitoclax; first compound 2.53 µM) | relative viability (AZ505 + Navitoclax; first compound 8 µM) | relative viability (Dactolisib + Phenformin; first compound 0.002 µM) | relative viability (Dactolisib + Phenformin; first compound 0.006325 µM) | relative viability (Dactolisib + Phenformin; first compound 0.02 µM) | relative viability (Dactolisib + Phenformin; first compound 0.06325 µM) | relative viability (Dactolisib + Phenformin; first compound 0.2 µM) | relative viability (AZ505; 0.08 µM) | relative viability (AZ505; 0.253 µM) | relative viability (AZ505; 0.8 µM) | relative viability (AZ505; 2.53 µM) | relative viability (AZ505; 8 µM) | relative viability (Dactolisib; 0.002 µM) | relative viability (Dactolisib; 0.006325 µM) | relative viability (Dactolisib; 0.02 µM) | relative viability (Dactolisib; 0.06325 µM) | relative viability (Dactolisib; 0.2 µM)
NCI-H2126 | 0.818 | 0.88 | 0.83 | 0.857 | 0.863 | 0.562 | 0.513 | 0.534 | 0.435 | 0.366 | 0.993 | 0.945 | 0.971 | 0.984 | 0.988 | 1.09 | 0.936 | 0.892 | 0.638 | 0.488
LXF-289 | 0.891 |  | 0.919 | 0.881 | 0.935 | 0.571 | 0.499 | 0.534 | 0.518 | 0.439 | 0.967 | 0.98 | 0.988 | 1.02 | 1.01 | 1.07 | 1.04 | 1 | 0.998 | 0.84
NCI-H2009 | 1.21 | 1.14 | 1.1 | 1.19 | 1.12 | 0.553 | 0.467 | 0.474 | 0.308 | 0.198 | 0.987 | 0.986 | 0.998 | 0.921 | 0.952 | 1.05 | 0.983 | 1.04 | 0.598 | 0.366
NCI-H2405 | 0.449 | 0.483 | 0.621 | 0.524 | 0.696 | 0.403 | 0.379 | 0.374 | 0.269 | 0.256 | 0.769 | 0.707 | 0.784 | 0.892 | 0.82 | 1.01 | 0.993 | 0.97 | 0.607 | 0.447
NCI-H1755 | 0.949 | 1.06 | 0.967 | 1.01 | 0.971 | 0.647 | 0.617 | 0.612 | 0.549 | 0.476 | 0.93 | 1.05 | 0.962 | 0.98 | 0.958 | 1.04 | 0.976 | 0.963 | 0.887 | 0.742
HCC-78 |  | 0.852 | 0.832 | 0.919 | 0.818 | 0.912 | 0.771 | 0.63 | 0.495 | 0.319 | 0.794 | 0.775 | 0.861 | 0.937 | 0.978 | 1.06 | 0.909 | 0.829 | 0.657 | 0.387
LOU-NH91 | 0.612 | 0.694 | 0.657 | 0.657 | 0.804 | 0.625 | 0.731 | 0.642 | 0.437 | 0.447 | 0.9 | 0.937 | 0.967 | 0.983 | 1.01 | 0.994 | 0.997 | 0.885 | 0.613 | 0.623
NCI-H3122 | 1 | 1.02 | 1.03 | 1.02 | 1 | 0.381 | 0.385 | 0.416 | 0.378 | 0.317 | 0.972 | 1.01 | 0.975 | 0.931 | 1.02 | 0.993 | 1.01 | 0.981 | 0.99 | 0.751
HCC-827 | 1.03 | 0.966 | 0.967 | 0.963 | 0.98 | 0.394 | 0.392 | 0.396 | 0.382 | 0.393 | 0.992 | 1.03 | 0.982 | 1.02 | 1.08 | 1.06 | 1.05 | 0.955 | 1.07 | 1.03
SW 1573 | 0.893 | 1.03 | 1.05 | 1.09 | 0.91 | 0.382 | 0.238 | 0.31 | 0.139 | 0.175 | 0.9 | 0.964 | 0.899 | 0.914 | 0.958 | 1.07 | 0.838 | 0.696 | 0.414 | 0.284
NCI-H1975 | 1.02 | 0.99 | 1.05 | 1.03 | 1.13 | 0.435 | 0.382 | 0.376 | 0.216 | 0.162 | 0.831 | 0.848 | 0.951 | 0.901 | 0.972 | 0.922 | 0.957 | 0.824 | 0.483 | 0.315
NCI-H1651 | 1.06 | 1.07 | 1.03 | 1.12 | 1.01 | 0.333 | 0.279 | 0.305 | 0.243 | 0.204 | 0.927 | 0.984 | 0.977 | 0.938 | 1.04 | 1.01 | 1 | 0.872 | 0.555 | 0.434
NCI-H441 | 0.691 | 0.682 | 0.545 | 0.716 | 0.505 | 1.28 | 0.737 | 0.812 | 0.337 | 0.289 | 0.865 | 1.09 | 1.07 | 0.997 | 1.24 | 1.28 | 1.02 | 0.925 | 0.48 | 0.298
LCLC-97TM1 | 0.446 | 0.521 | 0.902 | 0.735 | 0.694 | 0.452 | 0.444 | 0.42 | 0.317 | 0.179 | 0.893 | 0.838 | 0.897 | 0.759 | 1.06 | 1.01 | 1.02 | 0.9 | 0.802 | 0.388
NCI-H727 | 0.501 | 0.461 | 0.471 | 0.428 | 0.483 | 0.653 | 0.588 | 0.528 | 0.359 | 0.309 | 0.836 | 0.879 | 0.864 | 0.654 | 1.11 | 0.839 | 1.02 | 0.9 | 0.487 | 0.414
NCI-H1355 | 0.883 | 0.864 | 0.908 | 0.915 | 0.987 | 0.497 | 0.429 | 0.43 | 0.373 | 0.316 | 0.928 | 0.854 | 0.97 | 0.936 | 1.03 | 1.05 | 0.925 | 0.915 | 0.479 | 0.369
HOP-62 | 0.946 | 1.1 | 0.972 | 1.03 | 0.992 | 0.736 | 0.654 | 0.655 | 0.405 | 0.356 | 0.892 | 1.09 | 1.14 | 0.995 | 1.08 | 1.05 | 1.03 | 1.02 | 0.595 | 0.647
NCI-H2085 | 1.08 | 1.12 | 1.04 | 1.06 | 1.2 | 0.839 | 0.689 | 0.524 | 0.348 | 0.281 | 0.872 | 0.953 | 0.894 | 0.971 | 1.05 | 1.02 | 0.986 | 0.96 | 0.553 | 0.387
